Reference: EP1746087A1, “Derivates of 3-indolylmethylene having cytostatic properties” (Universitaet Regensburg, priority 2005, dated 2007)
Several values for one entry are separate records, joined by “and”; a condition that tells them apart may be missing. Identical values can stand only once. Like-named read-outs stand apart in the source and are kept apart here. Blank lines part the entries; values can stand above or below the compound they belong to.

Key:
Format in all cases: cell-based, menschlich
[1] = tested on: MDA-MB-231-Brustkrebszellen; assay: Growth inhibition of MDA-MB-231 breast cancer cells in vitro (cytostatic effect); conditions: MDA-MB-231 cells, read-out: IC50 Hemmwirkung auf das Wachstum
From the text: (§1) Die cytostatische Wirkung der erfindungsgemäßen Verbindungen wurde an zwei verschiedenen menschlichen Mammacarcinomzellinien in vitro bestimmt (M. Goldbrunner et al., J.Med.Chem. 1997,40,3525). Es handelt sich dabei um die hormonunabhängige MDA-MB-231-Zellinie und die estrogensensitive MCF-7-Linie. Die MDA-MB-231-Zellen wurden auch für die durchflusszytometrischen Analysen zur Zellzyklusverteilung herangezogen (M.J.J. Jaroszeski und R. Heller, Flow Cytometry Protocols, Humana Press, 1998, Totowa New Jersey). Besonders überraschend war, dass diese synthetischen Verbindungen häufig bereits im Konzentrationsbereich von 10 bis 100 nanomolar das Wachstum von menschlichen Tumorzellen stark hemmen, obwohl sie nur ein relativ niedriges Molekulargewicht aufweisen (MG ~ 320 - 500) (Tabelle 2 und 3, Abb. 2). Potente Therapeutika, die ebenfalls in den Zellzyklus eingreifen, besitzen Molekulargewichte im Bereich von 825 (Vincristin als Base) und 850 (Paclitaxel).

[2] = tested on: MCF-7-Mammacarcinomzellen; assay: Growth inhibition of MCF-7 mammary carcinoma cells in vitro (cytostatic effect); conditions: Homo sapiens, MCF7; MCF-7 cells; read-out: IC50 Hemmwirkung auf das Wachstum
From the text: as §1

[3] = tested on: MDA-MB-231-Mammacarcinomzellen; assay: Flow-cytometric analysis of cell cycle distribution
From the text: as §1

SMILES: COc1ccc2c(C=C(C#N)C#N)c(-c3ccc(C)cc3)[nH]c2c1 [Verbindung 3, [6-Methoxy-2-(4-methylphenyl)-indol-3-yl]-methylenpropandinitril]
IC50 ([1]; Homo sapiens): 180 nM
IC50 [2]: 250 nM

SMILES: CCCCCCc1ccc2[nH]c(-c3ccc(C(F)(F)F)cc3)c(C=C(C#N)C#N)c2c1 [Verbindung 17, {5-Hexyl-2-[4-(trifluormethyl)phenyl]-indol-3yl}-methylenpropandinitril]
IC50 [1]: 150 nM

SMILES: CCCCc1ccc2[nH]c(-c3ccc(C(F)(F)F)cc3)c(C=NNC(=O)c3ccncc3)c2c1 [Verbindung 28, 5-Butyl-2-[4-(trifluormethyl)-phenyl]-indol-3-carbaldehyd-isonicotinylhydrazon]
Debris % ([3]; Konz. 0.05 µM): 3.5%
G1/G0 % ([3]; Konz. 0.05 µM): 49.6%
G2/M % ([3]; Konz. 0.05 µM): 24.2%
S % ([3]; Konz. 0.05 µM): 25.6%
Debris % ([3]; Konz. 0.1 µM): 3.8%
G1/G0 % ([3]; Konz. 0.1 µM): 49.3%
G2/M % ([3]; Konz. 0.1 µM): 24.0%
S % ([3]; Konz. 0.1 µM): 23.7%
Debris % ([3]; Konz. 0.5 µM): 16.7%
G1/G0 % ([3]; Konz. 0.5 µM): 16.9%
G2/M % ([3]; Konz. 0.5 µM): 50.2%
S % ([3]; Konz. 0.5 µM): 15.0%
IC50 [1]: 94 nM

SMILES: CCCCc1ccc2[nH]c(-c3ccc(C(F)(F)F)cc3)c(C=NNC(N)=O)c2c1 [Verbindung 30, 5-Butyl-2-[4-(trifluormethyl)-phenyl]-indol-3-carbaldehyd-semicarbazon]
IC50 [1]: 850 nM

SMILES: COc1ccc(-c2[nH]c3cc(OC)ccc3c2C=C(C#N)C#N)cc1 [Verbindung 10, [6-Methoxy-2-(4-methoxyphenyl)-indol-3-yl]methylenpropandinitril]
IC50 ([1]; Homo sapiens): 260 nM

SMILES: COc1cccc(-c2[nH]c3ccc(OC)cc3c2C=C(C#N)C#N)c1 [Verbindung 12, [5-Methoxy-2-(3-methoxyphenyl)-indol-3-yl]-methylenpropandinitril]
IC50 ([1]; Homo sapiens): 970 nM

SMILES: COc1ccc(-c2[nH]c3ccccc3c2C=C(C#N)C#N)cc1 [Verbindung 11, [2-(4-Methoxyphenyl)-indol-3-yl]-methylenpropandinitril]
IC50 ([1]; Homo sapiens): 720 nM

SMILES: COc1ccc(-c2[nH]c3cc(OC)ccc3c2C=NNc2ccccc2)cc1 [Verbindung 21, 6-Methoxy-2-(4-methoxyphenyl)-indol-3-carbaldehyd-phenylhydrazon]
IC50 ([1]; Homo sapiens): 1000 nM

SMILES: CCCCc1ccc2[nH]c(-c3ccc(CC)cc3)c(C=NNCc3cccnc3)c2c1 [Verbindung 26, 5-Butyl-2-(4-ethylphenyl)-indol-3-carbaldehyd-nicotinylhydrazon]
Debris % ([3]; Konz. 0.01 µM): 3.2%
G1/G0 % ([3]; Konz. 0.01 µM): 51.0%
G2/M % ([3]; Konz. 0.01 µM): 26.3%
S % ([3]; Konz. 0.01 µM): 20.2%
Debris % ([3]; Konz. 0.05 µM): 2.8%
G1/G0 % ([3]; Konz. 0.05 µM): 51.3%
G2/M % ([3]; Konz. 0.05 µM): 22.9%
S % ([3]; Konz. 0.05 µM): 23.7%
Debris % ([3]; Konz. 0.1 µM): 3.4%
G1/G0 % ([3]; Konz. 0.1 µM): 49.2%
G2/M % ([3]; Konz. 0.1 µM): 25.5%
S % ([3]; Konz. 0.1 µM): 23.0%
Debris % ([3]; Konz. 0.5 µM): 12.2%
G1/G0 % ([3]; Konz. 0.5 µM): 9.6%
G2/M % ([3]; Konz. 0.5 µM): 66.9%
S % ([3]; Konz. 0.5 µM): 11.4%
IC50 ([1]; Homo sapiens): 53 nM

SMILES: CCCCc1ccc2[nH]c(-c3ccc(C(F)(F)F)cc3)c(C=NNC(=O)c3ccccn3)c2c1 [Verbindung 27, 5-n-Butyl-2-[4-(trifluormethyl)-phenyl]-indol-3-carbaldehyd-picolinylhydrazon]
IC50 [1]: 260 nM

SMILES: CC[C@]1(O)C[C@H]2CN(CCc3c([nH]c4ccccc34)[C@@](C(=O)OC)(c3cc4c(cc3OC)N(C=O)[C@H]3[C@@](O)(C(=O)OC)[C@H](OC(C)=O)[C@]5(CC)C=CCN6CC[C@]43[C@@H]65)C2)C1 [Vincr., Vincristin, reference compound]
G1/G0 % ([3]; Konz. 0.1 µM): 6.2% and 4.5% and 5.1% and 9.3% and 10.2% and 11.4% and 8.1%
G2/M % ([3]; Konz. 0.1 µM): 67.0% and 76.0% and 60.7% and 53.8% and 61.0% and 48.4% and 54.1%

Second part, led by results:

IC50 ([1]; Homo sapiens): 83 nM
SMILES: CCCc1ccc2[nH]c(-c3ccc(OC)cc3)c(C=C(C#N)C#N)c2c1 [Verbindung 5, [2-(4-Methoxyphenyl)-5-n-propyl-indol-3-yl]-methylenpropandinitril]

IC50 [1]: 200 nM
SMILES: CCCCc1ccc2[nH]c(-c3ccc(OC)cc3)c(C=C(C#N)C(=O)O)c2c1 [Verbindung 18, 3-[5-n-Butyl-2-(4-methoxyphenyl-)indol-3-yl]-2-cyanoacrylsäure]

IC50 ([1]; Homo sapiens): 32 nM
SMILES: CCCCc1ccc2[nH]c(-c3ccc(OC)cc3)c(C=NNC(=O)c3ccccc3)c2c1 [Verbindung 22, 5-n-Butyl-2-(4-methoxyphenyl)-indol-3-carbaldehyd-benzoylhydrazon]
IC50 [2]: 130 nM

IC50 [1]: 56 nM
SMILES: CCCCc1ccc2[nH]c(-c3ccc(C(F)(F)F)cc3)c(C=C(C#N)C#N)c2c1 [Verbindung 13, {5-Butyl-2-[4-(trifluormethyl)-phenyl]-indol-3-yl}methylenpropandinitril]
Debris % ([3]; Konz. 0.01 µM): 2.9%
G1/G0 % ([3]; Konz. 0.01 µM): 52.7%
G2/M % ([3]; Konz. 0.01 µM): 22.1%
S % ([3]; Konz. 0.01 µM): 22.9%
Debris % ([3]; Konz. 0.05 µM): 3.0%
G1/G0 % ([3]; Konz. 0.05 µM): 52.3%
G2/M % ([3]; Konz. 0.05 µM): 22.1%
S % ([3]; Konz. 0.05 µM): 22.6%
Debris % ([3]; Konz. 0.1 µM): 13.3%
G1/G0 % ([3]; Konz. 0.1 µM): 52.6%
G2/M % ([3]; Konz. 0.1 µM): 12.2%
S % ([3]; Konz. 0.1 µM): 22.3%
Debris % ([3]; Konz. 0.5 µM): 5.5%
G1/G0 % ([3]; Konz. 0.5 µM): 5.4%
G2/M % ([3]; Konz. 0.5 µM): 76.3%
S % ([3]; Konz. 0.5 µM): 9.2%

IC50 [1]: 78 nM
SMILES: CCCCCc1ccc2[nH]c(-c3ccc(C(F)(F)F)cc3)c(C=C(C#N)C#N)c2c1 [Verbindung 16, {5-Pentyl-2-[4-(trifluormethyl)-phenyl]-indol-3-yl}-methylenepropandinitril]

IC50 ([1]; Homo sapiens): 79 nM
SMILES: CCCCc1ccc2[nH]c(-c3ccc(CC)cc3)c(C=C(C#N)C#N)c2c1 [Verbindung 15, [5-Butyl-2-(4-ethylphenyl)-indol-3-yl]-methylenpropandinitril]
Debris % ([3]; Konz. 0.01 µM): 5.0%
G1/G0 % ([3]; Konz. 0.01 µM): 53.6%
G2/M % ([3]; Konz. 0.01 µM): 21.8%
S % ([3]; Konz. 0.01 µM): 20.0%
Debris % ([3]; Konz. 0.05 µM): 6.6%
G1/G0 % ([3]; Konz. 0.05 µM): 50.3%
G2/M % ([3]; Konz. 0.05 µM): 19.8%
S % ([3]; Konz. 0.05 µM): 24.2%
Debris % ([3]; Konz. 0.1 µM): 8.6%
G1/G0 % ([3]; Konz. 0.1 µM): 51.8%
G2/M % ([3]; Konz. 0.1 µM): 18.9%
S % ([3]; Konz. 0.1 µM): 20.7%
Debris % ([3]; Konz. 0.5 µM): 23.2%
G1/G0 % ([3]; Konz. 0.5 µM): 5.7%
G2/M % ([3]; Konz. 0.5 µM): 62.8%
S % ([3]; Konz. 0.5 µM): 6.3%

IC50 ([1]; Homo sapiens): 30 nM
SMILES: CCCCc1ccc2[nH]c(-c3ccc(OC)cc3)c(C=NN3C(=O)c4ccccc4C3=O)c2c1 [Verbindung 29, N-{[5-n-Butyl-2(4-methoxyphenyl)-indol-3-yl]methylenamino}-phthalimid]

IC50 [1]: 400 nM
SMILES: COc1ccc(-c2[nH]c3ccc(F)cc3c2C=C(C#N)C#N)cc1 [Verbindung 4, [5-Fluor-2-(4-methoxyphenyl)-indol-3-yl]methylenpropandinitril]

IC50 ([1]; Homo sapiens): 65 nM
SMILES: CCCCc1ccc2[nH]c(-c3ccc(C)cc3)c(C=C(C#N)C#N)c2c1 [Verbindung 14, [5-Butyl-2-(4-methylphenyl)-indol-3-yl]-methylenpropandinitril]
Debris % ([3]; Konz. 0.05 µM): 2.5%
G1/G0 % ([3]; Konz. 0.05 µM): 52.7%
G2/M % ([3]; Konz. 0.05 µM): 22.4%
S % ([3]; Konz. 0.05 µM): 24.0%
Debris % ([3]; Konz. 0.1 µM): 3.3%
G1/G0 % ([3]; Konz. 0.1 µM): 50.6%
G2/M % ([3]; Konz. 0.1 µM): 21.9%
S % ([3]; Konz. 0.1 µM): 24.6%
Debris % ([3]; Konz. 0.5 µM): 24.5%
G1/G0 % ([3]; Konz. 0.5 µM): 16.7%
G2/M % ([3]; Konz. 0.5 µM): 41.5%
S % ([3]; Konz. 0.5 µM): 15.6%
Debris % ([3]; Konz. 1.0 µM): 19.1%
G1/G0 % ([3]; Konz. 1.0 µM): 6.1%
G2/M % ([3]; Konz. 1.0 µM): 64.2%
S % ([3]; Konz. 1.0 µM): 10.3%

IC50 [1]: 90 nM
SMILES: CCCCc1ccc2[nH]c(-c3ccc(OC)cc3)c(C=NNC(=O)c3ccc(Cl)cc3)c2c1 [Verbindung 23, 5-n-Butyl-2-(4-methoxyphenyl)-indol-3-carbaldehyd-(4-chlorbenzoyl)hydrazon]
